Source: US11179391B2, “Compound with kinase inhibitory activity and preparation method and use thereof” (priority 2017, dated 2021)

What was measured:
CDK4/CycD3 = CDK4/CycD3 (Homo sapiens, UniProt P11802); experiment: Determination of CDK activity (Caliper mobility shift, FAM-P8 peptide): CDK4; type: biochemical; conditions: CDK4/CycD3; read-out: CDK4 enzymatic inhibitory activity (IC50)
How it was run: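 GST-CDK4(1-303)/GST-CycD3(1-292) was preincubated with compound for 10 min at room temperature, then FAM-P8 peptide and ATP were added; the reaction ran at 28 °C and was stopped with EDTA-containing stop buffer. Peptide conversion was read by Caliper mobility shift. A 10-point dilution series was fitted for IC50.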

CDK6/cycD3 = CDK6/cycD3 (Homo sapiens, UniProt Q00534); experiment: Determination of CDK activity (Caliper mobility shift, FAM-P8 peptide): CDK6; type: biochemical; conditions: CDK6/cycD3; read-out: CDK6 enzymatic inhibitory activity (IC50)
How it was run: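 GST-CDK6(1-326)/cycD3 with FAM-P8 peptide and ATP, after 10 min room-temperature enzyme–compound preincubation; reaction at 28 °C, then EDTA stop. Substrate conversion read by Caliper mobility shift; inhibition from no-compound and no-enzyme controls, IC50 fitted over 10-point dilution in DMSO.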

CDK1/CyclinB = CDK1/CyclinB (Homo sapiens, UniProt P06493); experiment: Determination of CDK activity (Caliper mobility shift, FAM-P8 peptide): CDK1; type: biochemical; conditions: CDK1/CyclinB; read-out: CDK1 enzymatic inhibitory activity (IC50)
CDK2/CycA2 = CDK2/CycA2 (Homo sapiens, UniProt P24941); experiment: Determination of CDK activity (Caliper mobility shift, FAM-P8 peptide): CDK2; type: biochemical; conditions: CDK2/CycA2; read-out: CDK2 enzymatic inhibitory activity (IC50)
CDK7/CyclinH/MAT1 = CDK7/CyclinH/MAT1 (Homo sapiens, UniProt P50613); experiment: Determination of CDK activity (Caliper mobility shift, FAM-P8 peptide): CDK7; type: biochemical; conditions: CDK7/CyclinH/MAT1; read-out: CDK7 enzymatic inhibitory activity (IC50)
How it was run: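 His-CDK7/GST-MAT1/cyclin H preincubated with compound (10-point series) 10 min at room temperature, then reacted with FAM-P8 peptide plus ATP at 28 °C for a set time before stopping. Peptide conversion read by Caliper mobility shift; converted to % inhibition vs controls and IC50 fitted.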

CDK9/cyclinTl = CDK9/cyclinTl (Homo sapiens, UniProt P50750); experiment: Determination of CDK activity (Caliper mobility shift, FAM-P8 peptide): CDK9; type: biochemical; conditions: CDK9/cyclinTl; read-out: CDK9 enzymatic inhibitory activity (IC50)
[1] = Pharmacokinetic study in rats; type: in vivo, Sprague-Dawley rats; conditions: for F / Cmax / Tmax / clearance / half-life / AUC(0-t): male Sprague-Dawley rats; for F: iv 2 mg/kg and oral 5 mg/kg; for Cmax / Tmax / clearance / half-life / AUC(0-t): rat, plasma, study dosed iv 2 mg/kg and oral 5 mg/kg, route of this parameter not given; for AUC(0-t): read-out: AUC0-24 h
Experimental: Healthy adult Sprague-Dawley rats, male, 7-10 weeks old, weighing 240-270 g, provided by Beijing Vital River Laboratory Animal Technology Co., Ltd., with an animal certificate number of 1140070278736.
Test compounds of the invention: example 17, 33, 40, and 57.
Intravenous administration solvent system of compounds: 10% (V/V) NMP and 90% (20% (V/V)) SBE-β-CD in 16.667 mM PBS with a concentration of 1.0 mg/mL.
Oral administration solvent system of compounds: pure water system containing 0.1% hydroxyethyl cellulose and 0.5% Tween-80, with a concentration of 1 mg/mL.
Intravenous administration: 3 male Sprague-Dawley rats of each test compound were injected intravenously after fasting overnight, with a dose of 2 mg/kg, and the dosing volume was 2 mL/kg. […]
Before the administration, and after administration of 0.0833 (iv), 0.25, 0.5, 1, 2, 4, 8, 12, and 24 h, the jugular vein puncture (approximately 0.15 mL per time point) of each animal was performed by collecting blood from polypropylene tubes. All blood samples were transferred to pre-cooled EDTA-K2 test tubes or pre-cooled plastic microcentrifuge tubes containing 3 μL of 0.5 M EDTA-K2 as anticoagulant and placed on wet ice until centrifugation. Each collected blood was centrifuged at 4° C. for 15 minutes, and plasma was collected. All plasma would be stored in a freezer at about −80° C. until LCMS/MS detection.

[2] = tested on: Human colorectal cancer Colo-205 cells; experiment: Pharmacodynamic study on mouse Colo-205 model (subcutaneous xenograft); type: in vivo, BALB/c nude mice; conditions: Colo-205 model, mesylate, 50 mg/kg PO × 28 days
Excerpt: BALB/c nude mice, 6-8 weeks old, weighing 12-14 g, female, provided by Shanghai Lab Animal Research Center (Shanghai Xipuer-Beikai) with an animal certificate No: 2008001682093.
The experiment was started after 3-7 days in the experimental environment when the animals arrived. Animals were housed in IVC (independent air supply system) cages (Four animals per cage) in SPF grade experimental animal facilities. Each cage animal information card contained the number of animals in the cage, sex, strain, receiving date, dosing schedule, experiment number, group and start date of the experiment. All cages, bedding, and drinking water were sterilized before use and were updated twice a week.
4.3 Tumor Cell Inoculation Method
Human colorectal cancer Colo-205 cells (ATCC-CCL-222) were cultured in vitro in monolayer under the conditions of RPMI 1640 medium with 10% fetal bovine serum, 100 U/mL penicillin and 100 μg/mL streptomycin, and 37° C. 5% CO2 incubator. The passage was routinely digested with trypsin-EDTA twice a week. When the cell saturation was up to 80%-90% and reached the requirement, the cells were collected, counted and inoculated. 0.2 mL (5×10^6) Colo-205 cells were subcutaneously inoculated on the right back of each mouse, and mice were randomly grouped and dosed when the average tumor volume reached 163 mm^3.
4.14 mL of lactic acid was added to a large beaker containing 800 mL of deionized water, and the pH was adjusted to 4.0 with 5 N NaOH. Then the volume was fixed to 1,000 mL to obtain 50 mmol/L sodium lactate buffer.
The subcutaneous tumor volume of nude mice was measured 2-3 times a week, and the mice were weighed, and the data were recorded.
4.6 Analysis and Evaluation
Experimental evaluation index: the tumor growth inhibition rate TGI (%) or the relative tumor proliferation rate T/C (%) was used for evaluation, wherein T was the experimental group, and C was the vehicle group.

[3] = rat plasma, at the dose of 10 mg/kg

Chain of CDK6/cycD3 (Q00534 whole entry): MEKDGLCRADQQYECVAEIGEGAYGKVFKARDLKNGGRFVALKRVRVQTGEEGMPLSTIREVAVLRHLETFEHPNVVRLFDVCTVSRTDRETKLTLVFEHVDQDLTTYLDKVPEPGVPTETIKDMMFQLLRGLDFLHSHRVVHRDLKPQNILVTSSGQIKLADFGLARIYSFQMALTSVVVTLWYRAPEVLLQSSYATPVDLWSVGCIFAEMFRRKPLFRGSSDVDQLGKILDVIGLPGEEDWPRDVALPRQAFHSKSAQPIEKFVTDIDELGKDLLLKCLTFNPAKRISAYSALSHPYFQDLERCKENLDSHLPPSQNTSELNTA
Chain of CDK6/cycD3 (P30281 whole entry partner): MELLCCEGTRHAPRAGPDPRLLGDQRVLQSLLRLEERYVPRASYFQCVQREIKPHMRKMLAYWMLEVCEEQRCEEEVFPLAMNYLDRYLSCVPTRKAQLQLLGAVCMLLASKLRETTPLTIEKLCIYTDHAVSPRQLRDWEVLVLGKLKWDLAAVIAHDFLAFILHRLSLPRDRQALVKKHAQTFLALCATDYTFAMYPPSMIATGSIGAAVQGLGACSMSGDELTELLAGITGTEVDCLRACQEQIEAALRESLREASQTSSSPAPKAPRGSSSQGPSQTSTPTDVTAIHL
Chain of CDK9/cyclinTl (P50750 whole entry): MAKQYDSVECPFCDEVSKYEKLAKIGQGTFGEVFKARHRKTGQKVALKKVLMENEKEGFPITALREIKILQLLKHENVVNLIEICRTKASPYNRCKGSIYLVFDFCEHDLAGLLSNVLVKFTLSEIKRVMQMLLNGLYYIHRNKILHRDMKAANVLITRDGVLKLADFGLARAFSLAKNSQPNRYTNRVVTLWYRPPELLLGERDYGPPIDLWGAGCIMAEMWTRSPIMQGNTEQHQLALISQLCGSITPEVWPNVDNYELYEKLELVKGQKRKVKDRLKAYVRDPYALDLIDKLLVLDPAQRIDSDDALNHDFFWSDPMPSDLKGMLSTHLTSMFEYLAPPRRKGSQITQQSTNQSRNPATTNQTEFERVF
Chain of CDK9/cyclinTl (O60563 whole entry partner): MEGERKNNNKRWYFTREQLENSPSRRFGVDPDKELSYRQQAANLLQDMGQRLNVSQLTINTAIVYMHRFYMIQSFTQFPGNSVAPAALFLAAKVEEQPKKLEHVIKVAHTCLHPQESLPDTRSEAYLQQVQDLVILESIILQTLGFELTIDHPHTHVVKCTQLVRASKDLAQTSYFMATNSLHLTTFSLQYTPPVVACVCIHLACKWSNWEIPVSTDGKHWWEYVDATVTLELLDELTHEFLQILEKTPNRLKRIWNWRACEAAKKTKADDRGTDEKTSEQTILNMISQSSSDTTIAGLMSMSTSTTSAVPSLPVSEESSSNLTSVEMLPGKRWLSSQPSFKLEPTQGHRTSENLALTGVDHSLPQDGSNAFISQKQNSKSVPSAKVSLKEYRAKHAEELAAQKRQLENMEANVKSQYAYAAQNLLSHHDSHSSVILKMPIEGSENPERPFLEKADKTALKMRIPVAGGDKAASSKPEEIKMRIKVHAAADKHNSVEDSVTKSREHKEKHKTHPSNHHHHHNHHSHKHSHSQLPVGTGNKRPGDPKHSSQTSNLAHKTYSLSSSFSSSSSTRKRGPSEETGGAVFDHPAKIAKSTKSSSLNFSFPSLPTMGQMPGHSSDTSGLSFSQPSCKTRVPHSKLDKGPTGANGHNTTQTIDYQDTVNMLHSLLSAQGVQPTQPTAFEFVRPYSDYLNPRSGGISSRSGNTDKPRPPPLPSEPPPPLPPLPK
Chain of CDK1/CyclinB (P06493 whole entry): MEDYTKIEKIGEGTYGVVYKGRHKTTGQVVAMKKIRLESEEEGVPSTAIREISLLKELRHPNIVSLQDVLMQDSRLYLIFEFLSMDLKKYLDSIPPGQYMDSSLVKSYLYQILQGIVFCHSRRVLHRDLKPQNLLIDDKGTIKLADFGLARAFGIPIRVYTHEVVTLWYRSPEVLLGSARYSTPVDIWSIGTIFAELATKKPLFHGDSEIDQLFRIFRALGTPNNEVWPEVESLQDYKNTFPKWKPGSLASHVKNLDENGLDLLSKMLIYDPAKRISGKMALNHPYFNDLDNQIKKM
Chain of CDK1/CyclinB (P14635 whole entry partner): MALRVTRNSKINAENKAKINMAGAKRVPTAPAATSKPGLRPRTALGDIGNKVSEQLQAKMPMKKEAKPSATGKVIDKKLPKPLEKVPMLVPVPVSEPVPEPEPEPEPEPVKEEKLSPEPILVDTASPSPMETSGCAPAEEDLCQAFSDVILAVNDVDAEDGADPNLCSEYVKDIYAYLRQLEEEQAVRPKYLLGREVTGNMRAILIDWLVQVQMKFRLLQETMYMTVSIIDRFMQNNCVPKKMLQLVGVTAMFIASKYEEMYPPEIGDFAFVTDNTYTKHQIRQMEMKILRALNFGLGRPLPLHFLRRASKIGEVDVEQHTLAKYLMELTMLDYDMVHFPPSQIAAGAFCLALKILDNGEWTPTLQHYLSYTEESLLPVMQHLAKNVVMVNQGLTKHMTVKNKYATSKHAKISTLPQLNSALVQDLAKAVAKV
Chain of CDK7/CyclinH/MAT1 (P50613 whole entry): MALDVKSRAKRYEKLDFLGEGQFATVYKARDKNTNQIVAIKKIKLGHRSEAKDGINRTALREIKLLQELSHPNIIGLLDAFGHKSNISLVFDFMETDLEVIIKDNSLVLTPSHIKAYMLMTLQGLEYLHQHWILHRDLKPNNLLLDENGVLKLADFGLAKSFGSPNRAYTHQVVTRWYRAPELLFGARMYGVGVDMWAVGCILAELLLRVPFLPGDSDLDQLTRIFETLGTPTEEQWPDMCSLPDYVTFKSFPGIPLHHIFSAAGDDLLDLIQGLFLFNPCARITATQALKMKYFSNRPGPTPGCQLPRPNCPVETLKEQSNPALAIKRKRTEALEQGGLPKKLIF
Chain of CDK7/CyclinH/MAT1 (P51946 whole entry partner): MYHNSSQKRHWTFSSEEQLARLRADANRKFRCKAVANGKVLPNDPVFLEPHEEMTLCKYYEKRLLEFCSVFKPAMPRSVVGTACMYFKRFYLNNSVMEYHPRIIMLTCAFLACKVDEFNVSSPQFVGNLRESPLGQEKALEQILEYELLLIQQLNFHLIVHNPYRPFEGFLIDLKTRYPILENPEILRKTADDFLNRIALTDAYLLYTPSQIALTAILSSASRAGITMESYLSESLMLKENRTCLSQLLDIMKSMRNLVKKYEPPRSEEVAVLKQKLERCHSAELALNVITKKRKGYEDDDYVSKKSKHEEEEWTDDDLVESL
Chain of CDK7/CyclinH/MAT1 (P51948 whole entry partner): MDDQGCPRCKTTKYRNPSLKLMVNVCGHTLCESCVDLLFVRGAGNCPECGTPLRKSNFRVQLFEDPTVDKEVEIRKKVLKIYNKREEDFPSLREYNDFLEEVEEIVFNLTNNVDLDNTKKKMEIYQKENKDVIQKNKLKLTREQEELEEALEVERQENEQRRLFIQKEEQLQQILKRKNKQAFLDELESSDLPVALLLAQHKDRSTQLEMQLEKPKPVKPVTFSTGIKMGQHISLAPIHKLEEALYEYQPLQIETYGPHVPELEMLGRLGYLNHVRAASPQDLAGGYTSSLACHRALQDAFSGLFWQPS
Chain of CDK4/CycD3 (P11802 whole entry): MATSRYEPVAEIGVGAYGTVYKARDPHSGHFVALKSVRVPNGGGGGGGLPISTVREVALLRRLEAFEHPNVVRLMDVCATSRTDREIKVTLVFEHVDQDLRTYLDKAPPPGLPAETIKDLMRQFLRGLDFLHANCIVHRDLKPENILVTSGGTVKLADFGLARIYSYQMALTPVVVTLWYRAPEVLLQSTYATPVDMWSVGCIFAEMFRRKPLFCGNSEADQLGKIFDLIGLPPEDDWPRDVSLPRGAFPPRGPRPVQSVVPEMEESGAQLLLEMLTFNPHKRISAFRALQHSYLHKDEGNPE
Chain of CDK4/CycD3 (P30281 whole entry partner): as the sequence (P30281 whole entry partner) above

| IC50 (CDK4/CycD3) | IC50 (CDK6/cycD3) | IC50 (CDK1/CyclinB) | IC50 (CDK2/CycA2) | IC50 (CDK7/CyclinH/MAT1) | IC50 (CDK9/cyclinTl) | F [1] | clearance in rat plasma (in words) [1, 3] | half-life in rat plasma (in words) [1, 3] | level of exposure at 24 h in rat plasma (in words) [1, 3] | Cmax [1] | Tmax [1] | clearance [1] | half-life [1] | AUC(0-t) [1] | Compound | Tumor volume (day 0) ([2]; baseline at start of dosing) | Tumor volume (day 28) [2] | TGI tumor growth inhibition rate ([2]; day 28) |
| --- | --- | --- | --- | --- | --- | --- | --- | --- | --- | --- | --- | --- | --- | --- | --- | --- | --- | --- |
| < 100 nM | < 100 nM | 100 to 500 nM | < 100 nM | 1000 to 10000 nM | < 100 nM | 43.7% | lower clearance | longer half-life | high level of exposure | 161 ng/mL | 8 h | 12.1 mL/min/kg | 491 min | 2570 ng·h/mL | C=C(c1ccc(Nc2ncc(F)c(-c3cc(F)c4nc(C)n(C(C)C)c4c3)n2)nc1)C1CCN(CC)CC1 [Example 33, N-(5-(1-(1-ethylpiperidin-4-yl)vinyl)pyridin-2-yl)-5-fluoro-4-(4-fluoro-1-isopropyl-2-methyl-1H-benzo[d]imidazol-6-yl) pyrimidin-2-amine] | – | – | – |
| – | – | – | – | – | – | – | – | – | – | – | – | – | – | – | CCN1CCN(Cc2ccc(Nc3ncc(F)c(-c4cc(F)c5nc(C)n(C(C)C)c5c4)n3)nc2)CC1 [Abemaciclib, reference compound] | 198 mm^3 | 749 mm^3 | 74.5% |
| < 100 nM | < 100 nM | < 100 nM | < 100 nM | 500 to 1000 nM | < 100 nM | 13.3% | – | – | – | 12.9 ng/mL | 4 h | 72.8 mL/min/kg | 714 min | 132 ng·h/mL | CCN1CCC(C(O)c2ccc(Nc3ncc(F)c(-c4cc(F)c5nc(C)n(C(C)C)c5c4)n3)nc2)CC1 (single isomer, unassigned) [Example 40, (R or S)-(1-ethylpiperidin-4-yl)(6-((5-fluoro-4-(4-fluoro-1-isopropyl-2-methyl-1H-benzo [d]imidazol-6-yl)pyrimidin-2-yl)amino)pyridin-3-yl) methanol] | – | – | – |
